Test results from ChEMBL document CHEMBL1138611, “Oxadiazolylindazole sodium channel modulators are neuroprotective toward hippocampal neurones” (J Med Chem, 2009).

Tests used:
[1] = Inhibition of voltage-gated sodium channel in Wistar rat forebrain synaptosomes assessed as inhibition of [14C]guanidium ion flux; type: subcellular, Brain
Hippocampus = test: Neuroprotective activity in Wistar rat hippocampal slices assessed as ATP concentration at 50 uM relative to tetrodotoxin; type: functional
[2] = Displacement of [3H]BW202W92 from voltage-gated sodium channel in Wistar rat forebrain synaptosomes by liquid scintillation counting; type: subcellular, Brain
Cytochrome P450 2D6 = Cytochrome P450 2D6 (Homo sapiens, UniProt P10635); test: Inhibition of human recombinant CYP2D6; type: ADME
Cytochrome P450 1A2 = target: T1, Cytochrome P450 1A2 (Homo sapiens, UniProt P05177); test: Inhibition of human recombinant CYP1A2; type: ADME
T1 sequence (P05177 whole entry): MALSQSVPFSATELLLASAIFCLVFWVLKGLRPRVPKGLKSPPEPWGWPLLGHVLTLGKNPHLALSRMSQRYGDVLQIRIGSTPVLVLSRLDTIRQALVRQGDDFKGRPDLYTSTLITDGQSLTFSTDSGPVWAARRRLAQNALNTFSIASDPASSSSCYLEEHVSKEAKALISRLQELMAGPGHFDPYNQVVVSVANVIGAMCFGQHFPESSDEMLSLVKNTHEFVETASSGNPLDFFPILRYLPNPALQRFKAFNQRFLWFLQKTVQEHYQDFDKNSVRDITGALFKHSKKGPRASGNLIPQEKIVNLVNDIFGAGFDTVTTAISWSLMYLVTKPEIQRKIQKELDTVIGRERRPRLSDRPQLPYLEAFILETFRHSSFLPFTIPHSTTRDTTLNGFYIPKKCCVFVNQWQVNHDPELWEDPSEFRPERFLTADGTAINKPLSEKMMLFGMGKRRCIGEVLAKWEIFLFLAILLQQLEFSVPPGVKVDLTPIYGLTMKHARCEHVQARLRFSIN

Cytochrome P450 2D6, sequence (P10635 whole entry): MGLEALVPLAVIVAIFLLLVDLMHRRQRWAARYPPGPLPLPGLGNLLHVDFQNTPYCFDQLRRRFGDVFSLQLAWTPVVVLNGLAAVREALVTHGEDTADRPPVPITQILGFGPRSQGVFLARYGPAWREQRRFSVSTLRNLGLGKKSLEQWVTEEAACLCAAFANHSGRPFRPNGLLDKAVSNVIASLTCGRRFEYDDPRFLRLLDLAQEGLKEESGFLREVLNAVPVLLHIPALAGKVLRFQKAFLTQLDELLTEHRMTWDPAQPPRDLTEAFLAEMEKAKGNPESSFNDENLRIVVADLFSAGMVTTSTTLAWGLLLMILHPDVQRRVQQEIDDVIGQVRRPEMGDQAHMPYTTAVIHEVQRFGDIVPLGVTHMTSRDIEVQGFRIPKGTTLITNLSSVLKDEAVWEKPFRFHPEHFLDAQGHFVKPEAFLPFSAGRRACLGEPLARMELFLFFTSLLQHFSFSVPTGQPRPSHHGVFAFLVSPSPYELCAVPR

Row | SMILES | IC50 [1] | Activity (Hippocampus) | IC50 [2] | IC50 (Cytochrome P450 2D6) | IC50 (Cytochrome P450 1A2)
1 | NCc1noc(-c2nn(CCOc3ccccc3)c3ccccc23)n1 | 30 µM | 40% |  |  | 
2 | NCc1noc(-c2c3ccccc3nn2Cc2cccc(Cl)c2)n1 | 24 µM | 17% | 110 µM |  | 
3 | CC(C)(C)OC(=O)NCc1noc(-c2c3ccccc3nn2Cc2ccccc2)n1 | 174 µM | 25% |  |  | 
4 | CC(C)(C)OC(=O)NCc1noc(-c2c3ccccc3nn2CCc2ccccc2)n1 | 85 µM | 0% |  |  | 
5 | COc1ccc(Cn2nc(-c3nc(CN)no3)c3ccccc32)cc1 | 38 µM | 35% |  |  | 
6 | Cc1ccccc1Cn1nc(-c2nc(CNC(=O)OC(C)(C)C)no2)c2ccccc21 | 3 µM | 0% |  |  | 
7 | Cc1cc(C)cc(Cn2nc(-c3nc(CNC(=O)OC(C)(C)C)no3)c3ccccc32)c1 | 4 µM | 0% |  |  | 
8 | Cc1cc(C)cc(Cn2nc(-c3nc(CN)no3)c3ccccc32)c1 | 15 µM | 43% |  | 3.73 µM | 0.062 µM
9 | NCc1noc(-c2c3ccccc3nn2Cc2ccc3c(c2)OCO3)n1 | 34 µM | 55% |  |  | 
10 | COc1ccc(S(=O)(=O)n2nc(-c3nc(CN)no3)c3ccccc32)cc1OC | 102 µM | 2% |  | 2.9 µM | > 10 µM
11 | NCc1noc(-c2nn(Cc3ccccc3Cl)c3ccccc23)n1 | 20 µM | 43% |  |  | 
12 | COc1cc(Cn2nc(-c3nc(CNC(=O)OC(C)(C)C)no3)c3ccccc32)cc(OC)c1OC | 195 µM | 0% |  |  | 
13 | Cc1cccc(Cn2nc3ccccc3c2-c2nc(CN)no2)c1 | 26 µM | 37% |  |  | 
14 | COc1ccc(S(=O)(=O)n2nc(-c3nc(CNC(=O)OC(C)(C)C)no3)c3ccccc32)cc1OC | 2 µM | 10% |  | 20 µM | 
15 | Cc1cccc(Cn2nc(-c3nc(CN)no3)c3ccccc32)c1 | 28 µM | 45% |  | 3.96 µM | 0.084 µM
16 | NCc1noc(-c2nn(Cc3cccc(C(F)(F)F)c3)c3ccccc23)n1 | 26 µM | 58% |  |  | 
17 | Cc1ccc(Cn2nc(-c3nc(CN)no3)c3ccccc32)cc1 | 17 µM | 34% |  |  | 
18 | CC(C)(C)OC(=O)NCc1noc(-c2nn(Cc3ccc4ccccc4c3)c3ccccc23)n1 | 0.4 µM | 0% |  |  | 
19 | CC(C)(C)OC(=O)NCc1noc(-c2nn(CCc3ccccc3)c3ccccc23)n1 | 5 µM | 0% |  |  | 
20 | O=S(=O)(NCc1noc(-c2nn(Cc3ccccc3)c3ccccc23)n1)c1ccccc1 | 5 µM | 20% |  |  | 

Row | SMILES | IC50 [1] | Activity (Hippocampus) | IC50 [2] | IC50 (Cytochrome P450 2D6) | IC50 (Cytochrome P450 1A2)
21 | CC(C)(C)OC(=O)NCc1noc(-c2nn(CCOc3ccccc3)c3ccccc23)n1 | 6 µM | 8% |  |  | 
22 | NCc1noc(-c2nn(CCc3ccccc3)c3ccccc23)n1 | 35 µM | 49% |  | 1.32 µM | 0.034 µM
23 | COc1ccc(Cn2nc(-c3nc(CNC(=O)OC(C)(C)C)no3)c3ccccc32)cc1 | 4 µM | 0% |  |  | 
24 | CC(C)(C)OC(=O)NCc1noc(-c2nn(Cc3cccc(OC(F)(F)F)c3)c3ccccc23)n1 | 0.9 µM | 0% |  |  | 
25 | NCc1noc(-c2nn(Cc3cccc(Cl)c3)c3ccccc23)n1 | 14 µM | 50% |  |  | 
26 | Cc1nc(-c2ccc(Cn3nc(-c4nc(CNC(=O)OC(C)(C)C)no4)c4ccccc43)cc2)no1 | 1 µM |  |  |  | 
27 | CC(=O)Nc1ccc(Cn2nc(-c3nc(CNC(=O)OC(C)(C)C)no3)c3ccccc32)cc1 | 15 µM | 47% |  | 13 µM | 5.92 µM
28 | O=C(NCc1noc(-c2nn(Cc3ccccc3)c3ccccc23)n1)c1ccccc1 | 18 µM | 23% |  |  | 
29 | NCc1noc(-c2nn(Cc3cccc(OC(F)(F)F)c3)c3ccccc23)n1 | 26 µM | 33% |  |  | 
30 | NCc1noc(-c2nn(Cc3ccc(C(N)=O)cc3)c3ccccc23)n1 | 195 µM | 8% |  | 1.3 µM | 
31 | Cc1nc(-c2ccc(Cn3nc(-c4nc(CN)no4)c4ccccc43)cc2)no1 | 58 µM |  |  |  | 
32 | Cc1cc(C)cc(Cn2nc3ccccc3c2-c2nc(CNC(=O)OC(C)(C)C)no2)c1 | 12 µM | 0% |  |  | 
33 | CC(C)(C)OC(=O)NCc1noc(-c2nn(Cc3ccc(-c4cn[nH]c4)cc3)c3ccccc23)n1 | 16 µM | 20% |  | > 10 µM | 
34 | COc1cc(Cn2nc(-c3nc(CN)no3)c3ccccc32)cc(OC)c1OC | 178 µM | 28% |  |  | 
35 | Cc1ccccc1Cn1nc(-c2nc(CN)no2)c2ccccc21 | 26 µM | 46% |  |  | 
36 | Cc1cc(C)cc(Cn2nc3ccccc3c2-c2nc(CN)no2)c1 | 14 µM | 35% |  |  | 
37 | CC(C)(C)OC(=O)NCc1noc(-c2n[nH]c3ccccc23)n1 | 96 µM | 0% |  | > 10 µM | 0.79 µM
38 | CC(C)(C)OC(=O)NCc1noc(-c2nn(Cc3ccccc3)c3ccccc23)n1 | 5 µM | 19% |  |  | 
39 | CC(C)(C)OC(=O)NCc1noc(-c2nn(Cc3cccc(C(F)(F)F)c3)c3ccccc23)n1 | 8 µM | 3% |  |  | 
40 | Cc1cccc(Cn2nc3ccccc3c2-c2nc(CNC(=O)OC(C)(C)C)no2)c1 | 151 µM | 0% |  |  | 

Row | SMILES | IC50 [1] | Activity (Hippocampus) | IC50 [2] | IC50 (Cytochrome P450 2D6) | IC50 (Cytochrome P450 1A2)
41 | CC(C)(C)OC(=O)NCc1noc(-c2nn(Cc3ccc4c(c3)OCO4)c3ccccc23)n1 | 1 µM | 0% |  | 3.3 µM | 4.86 µM
42 | Cc1ccc(Cn2nc(-c3nc(CNC(=O)OC(C)(C)C)no3)c3ccccc32)cc1 | 2 µM | 0% |  |  | 
43 | NCc1noc(-c2nn(Cc3ccc(-c4cn[nH]c4)cc3)c3ccccc23)n1 | 63 µM | 26% |  |  | 
44 | CC(C)(C)OC(=O)NCc1noc(-c2nn(Cc3ccccc3Cl)c3ccccc23)n1 | > 300 µM | 9% |  |  | 
45 | CC(=O)n1nc(-c2nc(CNC(=O)OC(C)(C)C)no2)c2ccccc21 | 132 µM | 4% |  | > 10 µM | 
46 | NCc1noc(-c2nn(Cc3ccc4c(c3)OCO4)c3ccccc23)n1 | 30 µM | 44% |  |  | 
47 | CC(C)(C)OC(=O)NCc1noc(-c2nn(Cc3cc(F)cc(F)c3F)c3ccccc23)n1 | 1 µM | 0% |  |  | 
48 | Cc1cccc(Cn2nc(-c3nc(CNC(=O)OC(C)(C)C)no3)c3ccccc32)c1 | 1 µM | 0% |  | 20 µM | 
49 | CC(C)(C)OC(=O)NCc1noc(-c2c3ccccc3nn2Cc2ccc3c(c2)OCO3)n1 | 3 µM | 0% |  |  | 
50 | NCc1noc(-c2nn(Cc3cc(F)cc(F)c3F)c3ccccc23)n1 | 35 µM | 59% |  |  | 
51 | CC(C)(C)OC(=O)NCc1noc(-c2nn(Cc3ccc(C(N)=O)cc3)c3ccccc23)n1 | 24 µM | 29% |  | > 10 µM | 
52 | NCc1noc(-c2nn(Cc3ccc4ccccc4c3)c3ccccc23)n1 | 20 µM | 11% |  |  | 
53 | O=C(NCc1noc(-c2nn(Cc3ccccc3)c3ccccc23)n1)OCc1ccccc1 | 5 µM | 12% |  |  | 
54 | CC(=O)Nc1ccc(Cn2nc(-c3nc(CN)no3)c3ccccc32)cc1 | 309 µM | 10% |  |  | 
55 | NCc1noc(-c2c3ccccc3nn2CCc2ccccc2)n1 | 19 µM | 54% |  | 4.27 µM | 0.36 µM
56 | NCc1noc(-c2n[nH]c3ccccc23)n1 | 2190 µM | 10% |  | 1 µM | 0.21 µM
57 | CC(C)(C)OC(=O)NCc1noc(-c2c3ccccc3nn2Cc2cccc(Cl)c2)n1 | 4 µM | 0% |  |  | 
58 | CC(=O)n1nc(-c2nc(CN)no2)c2ccccc21 | > 300 µM | 24% |  | > 10 µM | 
59 | CC(C)(C)OC(=O)NCc1noc(-c2nn(Cc3cccc(Cl)c3)c3ccccc23)n1 | 4 µM | 12% |  |  | 
